What was measured:
[1] = test system: maternal HIV+ sera (antibodies); assay: RIA / ELISA binding of maternal HIV+ sera to gp120 and gp41 peptides (Example 3); parameters: species or system human
How it was run: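 Peptides were coated at 10 μg/ml in carbonate buffer pH 9.6 and blocked with 1% BSA. Sera at 1:50 and 1:500 were incubated overnight at 4°C and detected with ¹²⁵I anti-human IgG (RIA) or HRP/TMB at OD450 (ELISA). Specific binding was taken as peptide minus no-peptide wells, scored as a ratio to normal human serum.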

[2] = test system: maternal sera (antibodies); assay: ELISA peptide-binding of maternal sera (Example 6); parameters: species or system human; conditions: for Number of Non-Transmitters which bound to peptide / Percent of Non-Transmitters which bound to peptide: N = 12; for Number of Transmitters which bound to peptide / Percent of Transmitters which bound to peptide: N = 4
How it was run: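 Third-trimester maternal sera, from HIV-1 transmitting and non-transmitting mothers, were tested by ELISA against ~16-residue peptides spanning HIV-1 external and transmembrane glycoproteins. Each serum was run with at least 40 peptides, and values are the percentage of sera binding each peptide.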

[3] = Serum No. 1, Non-Transmission Group
[4] = Serum No. 2, Non-Transmission Group
[5] = Serum No. 3, Non-Transmission Group
[6] = Serum No. 4, Transmission Group
[7] = Serum No. 5, Transmission Group
[8] = Serum No. 6, Non-Transmission Group
[9] = Serum No. 7, Non-Transmission Group
[10] = Serum No. 8, Non-Transmission Group
[11] = Serum No. 9, Non-Transmission Group
[12] = Serum No. 10, Transmission Group
[13] = Serum No. 11, Non-Transmission Group
[14] = Serum No. 12, Non-Transmission Group
[15] = Serum No. 13, Transmission Group
[16] = Serum No. 14, Transmission Group
[17] = Serum No. 15, Transmission Group
[18] = Serum No. 16, Non-Transmission Group
[19] = Serum No. 17, Non-Transmission Group
[20] = Serum No. 18, Non-Transmission Group
[21] = Serum No. 19, Transmission Group
[22] = Serum No. 20, Non-Transmission Group

| Sequence | Binding of maternal HIV+ serum to peptide (sera/NHS ratio) [1, 3] | Binding of maternal HIV+ serum to peptide (sera/NHS ratio) [1, 4] | Binding of maternal HIV+ serum to peptide (sera/NHS ratio) [1, 5] | Binding of maternal HIV+ serum to peptide (sera/NHS ratio) [1, 6] | Binding of maternal HIV+ serum to peptide (sera/NHS ratio) [1, 7] | Binding of maternal HIV+ serum to peptide (sera/NHS ratio) [1, 8] | Binding of maternal HIV+ serum to peptide (sera/NHS ratio) [1, 9] | Binding of maternal HIV+ serum to peptide (sera/NHS ratio) [1, 10] | Binding of maternal HIV+ serum to peptide (sera/NHS ratio) [1, 11] | Binding of maternal HIV+ serum to peptide (sera/NHS ratio) [1, 12] | Binding of maternal HIV+ serum to peptide (sera/NHS ratio) [1, 13] | Binding of maternal HIV+ serum to peptide (sera/NHS ratio) [1, 14] | Binding of maternal HIV+ serum to peptide (sera/NHS ratio) [1, 15] | Binding of maternal HIV+ serum to peptide (sera/NHS ratio) [1, 16] | Binding of maternal HIV+ serum to peptide (sera/NHS ratio) [1, 17] | Binding of maternal HIV+ serum to peptide (sera/NHS ratio) [1, 18] | Binding of maternal HIV+ serum to peptide (sera/NHS ratio) [1, 19] | Binding of maternal HIV+ serum to peptide (sera/NHS ratio) [1, 20] | Binding of maternal HIV+ serum to peptide (sera/NHS ratio) [1, 21] | Binding of maternal HIV+ serum to peptide (sera/NHS ratio) [1, 22] | also measured |
| --- | --- | --- | --- | --- | --- | --- | --- | --- | --- | --- | --- | --- | --- | --- | --- | --- | --- | --- | --- | --- | --- |
| NYTSLIHSLIEESQNQ [Peptide 41] | - (specific OD450 or cpm of sera sample binding to peptide divided by the specific OD450 or cpm of NHS sample binding to peptide, which value is less than 2) | - (specific OD450 or cpm of sera sample binding to peptide divided by the specific OD450 or cpm of NHS sample binding to peptide, which value is less than 2) | - (specific OD450 or cpm of sera sample binding to peptide divided by the specific OD450 or cpm of NHS sample binding to peptide, which value is less than 2) | - (specific OD450 or cpm of sera sample binding to peptide divided by the specific OD450 or cpm of NHS sample binding to peptide, which value is less than 2) | - (specific OD450 or cpm of sera sample binding to peptide divided by the specific OD450 or cpm of NHS sample binding to peptide, which value is less than 2) | - (specific OD450 or cpm of sera sample binding to peptide divided by the specific OD450 or cpm of NHS sample binding to peptide, which value is less than 2) | - (specific OD450 or cpm of sera sample binding to peptide divided by the specific OD450 or cpm of NHS sample binding to peptide, which value is less than 2) | - (specific OD450 or cpm of sera sample binding to peptide divided by the specific OD450 or cpm of NHS sample binding to peptide, which value is less than 2) | - (specific OD450 or cpm of sera sample binding to peptide divided by the specific OD450 or cpm of NHS sample binding to peptide, which value is less than 2) | - (specific OD450 or cpm of sera sample binding to peptide divided by the specific OD450 or cpm of NHS sample binding to peptide, which value is less than 2) | - (specific OD450 or cpm of sera sample binding to peptide divided by the specific OD450 or cpm of NHS sample binding to peptide, which value is less than 2) | - (specific OD450 or cpm of sera sample binding to peptide divided by the specific OD450 or cpm of NHS sample binding to peptide, which value is less than 2) | - (specific OD450 or cpm of sera sample binding to peptide divided by the specific OD450 or cpm of NHS sample binding to peptide, which value is less than 2) | - (specific OD450 or cpm of sera sample binding to peptide divided by the specific OD450 or cpm of NHS sample binding to peptide, which value is less than 2) | - (specific OD450 or cpm of sera sample binding to peptide divided by the specific OD450 or cpm of NHS sample binding to peptide, which value is less than 2) | - (specific OD450 or cpm of sera sample binding to peptide divided by the specific OD450 or cpm of NHS sample binding to peptide, which value is less than 2) | - (specific OD450 or cpm of sera sample binding to peptide divided by the specific OD450 or cpm of NHS sample binding to peptide, which value is less than 2) | - (specific OD450 or cpm of sera sample binding to peptide divided by the specific OD450 or cpm of NHS sample binding to peptide, which value is less than 2) | - (specific OD450 or cpm of sera sample binding to peptide divided by the specific OD450 or cpm of NHS sample binding to peptide, which value is less than 2) | - (specific OD450 or cpm of sera sample binding to peptide divided by the specific OD450 or cpm of NHS sample binding to peptide, which value is less than 2) | Number of Non-Transmitters which bound to peptide [2]: 0; Percent of Non-Transmitters which bound to peptide [2]: 0%; Number of Transmitters which bound to peptide [2]: 0; Percent of Transmitters which bound to peptide [2]: 0% |
| SSGRMIMEKGEIKNCSFNIST [Peptide 59] | - (specific OD450 or cpm of sera sample binding to peptide divided by the specific OD450 or cpm of NHS sample binding to peptide, which value is less than 2) | - (specific OD450 or cpm of sera sample binding to peptide divided by the specific OD450 or cpm of NHS sample binding to peptide, which value is less than 2) | - (specific OD450 or cpm of sera sample binding to peptide divided by the specific OD450 or cpm of NHS sample binding to peptide, which value is less than 2) | - (specific OD450 or cpm of sera sample binding to peptide divided by the specific OD450 or cpm of NHS sample binding to peptide, which value is less than 2) | - (specific OD450 or cpm of sera sample binding to peptide divided by the specific OD450 or cpm of NHS sample binding to peptide, which value is less than 2) | - (specific OD450 or cpm of sera sample binding to peptide divided by the specific OD450 or cpm of NHS sample binding to peptide, which value is less than 2) | - (specific OD450 or cpm of sera sample binding to peptide divided by the specific OD450 or cpm of NHS sample binding to peptide, which value is less than 2) | - (specific OD450 or cpm of sera sample binding to peptide divided by the specific OD450 or cpm of NHS sample binding to peptide, which value is less than 2) | - (specific OD450 or cpm of sera sample binding to peptide divided by the specific OD450 or cpm of NHS sample binding to peptide, which value is less than 2) | - (specific OD450 or cpm of sera sample binding to peptide divided by the specific OD450 or cpm of NHS sample binding to peptide, which value is less than 2) | - (specific OD450 or cpm of sera sample binding to peptide divided by the specific OD450 or cpm of NHS sample binding to peptide, which value is less than 2) | - (specific OD450 or cpm of sera sample binding to peptide divided by the specific OD450 or cpm of NHS sample binding to peptide, which value is less than 2) | - (specific OD450 or cpm of sera sample binding to peptide divided by the specific OD450 or cpm of NHS sample binding to peptide, which value is less than 2) | - (specific OD450 or cpm of sera sample binding to peptide divided by the specific OD450 or cpm of NHS sample binding to peptide, which value is less than 2) | - (specific OD450 or cpm of sera sample binding to peptide divided by the specific OD450 or cpm of NHS sample binding to peptide, which value is less than 2) | - (specific OD450 or cpm of sera sample binding to peptide divided by the specific OD450 or cpm of NHS sample binding to peptide, which value is less than 2) | - (specific OD450 or cpm of sera sample binding to peptide divided by the specific OD450 or cpm of NHS sample binding to peptide, which value is less than 2) | - (specific OD450 or cpm of sera sample binding to peptide divided by the specific OD450 or cpm of NHS sample binding to peptide, which value is less than 2) | - (specific OD450 or cpm of sera sample binding to peptide divided by the specific OD450 or cpm of NHS sample binding to peptide, which value is less than 2) | - (specific OD450 or cpm of sera sample binding to peptide divided by the specific OD450 or cpm of NHS sample binding to peptide, which value is less than 2) | Binding of maternal sera to peptide (in words) ([1]; Example 3): No binding; Number of Non-Transmitters which bound to peptide [2]: 0; Percent of Non-Transmitters which bound to peptide [2]: 0%; Number of Transmitters which bound to peptide [2]: 0; Percent of Transmitters which bound to peptide [2]: 0% |

From US5556744A, “Methods and compositions for diagnosing and treating certain HIV infected patients” (The Trustees of the University of Pennsylvania, priority 1994, dated 1996)
